What was measured:
[1] = system: non-transgenic or wild-type SOD1-expressing fish; test: axonal and total body length in non-transgenic or wild-type SOD1-expressing fish; format: in vivo; conditions: zebrafish, average ± s.e.m.
Protocol: Y-axes show motor axon length of non-transgenic (black bar) or SOD1WT-expressing (white bar) zebrafish embryos, injected with either atg-RTK2 (shaded bars, Panel A) or atg-RTK1 morpholino (shaded bars, Panel B). Ctr-RTK2 and ctr-RTK1 were used as controls. Error bars are s.e.m.
To identify disease-modifying genes in ALS in an unbiased way, knockdown screening was performed in the mutant SOD1 zebrafish model (reference 13), using a library of 303 translation blocking morpholinos (atg-mo), of which 58 were targeting genes presumed to be neuronally expressed (according to the NCBI database) and 245 randomly chosen targeting genes. […] The morpholino yielding the highest rescue in two separate experiments was studied further. It targets zebrafish receptor tyrosine kinase 2 (RTK2, also known as epha4b), which has 67% identity and 80% homology to the human orthologue EPHA4. Knockdown of RTK2 in fish expressing mutant SOD1 completely and dose-dependently rescued the motor axonopathy (both axonal length and aberrant branching) caused by three different SOD1 mutations: A4V, G93A and G37R (FIG. 1, Panels A-F; Table 2). […] Receptor tyrosine kinase 1 (RTK1, also known as epha4a), the fish paralogue of RTK2, has 83% identity and 92% homology to human EPHA4. RTK1 knockdown was dose-dependently and equally protective as RTK2 knockdown (FIG. 1, Panel G; Table 4). […]

RTK1 = RTK1 expression by Western blot and whole-mount immunostaining of zebrafish embryos; format: in vivo; conditions: Western blot of zebrafish embryos and whole-mount immunostaining of rhombomeres, 4.5 ng
Description: FIG. 1: EphA4 knockdown rescues mutant SOD1-induced motor axonopathy. […] Abnormal branching is indicated with arrowhead. Y-axes show motor axon length of zebrafish embryos expressing wild-type SOD1 (black bar, Panels D-G) or mutant SOD1 (white bar, Panels D-G). Knockdown of RTK2 in SOD1A4V- (Panel D), SOD1G93A- (Panel E) and SOD1G37R- (Panel F) expressing fish was established by co-injection of increasing amounts of atg-RTK2 morpholino (shaded bars). RTK1 expression was inhibited in SOD1A4V-expressing fish by co-injection of atg-RTK1 morpholino (shaded bars, Panel G). Ctr-RTK2 and ctr-RTK1 were used as control. ANOVA and Bonferroni's multiple comparison tests were used for statistical analysis. […]
Mice spinal cord and 30 hpf old, dechorionated and deyolked zebrafish embryos, and NSC-43 cells were homogenized in buffer: 50 mM Triz/HCl, pH 7.5, 120 mM NaCl, 1% TRITON® X-100, 1 mM sodium orthovanadaat, 2 mM PMSF, complete protease inhibitor (Roche). Protein concentration was determined using the micro-BCA protein assay reaction kit 207 (Pierce). […]

Question: For “5′-CTGTGAACACAAGCGCAGCCATTGG-′3 (all phosphorodiamidate morpholino (PMO)) [atg-RTK1]”, which body length [1] is on record?
Answer: The body length was 2.61±0.01 mm.

Question: What about the RTK1 expression (RTK1) of the same substance?
Answer: The RTK1 expression was “efficiently blocked RTK1 expression”.

Source: US9187784B2, “EphA4 is a disease modifier in motor neuron disease” (VIB VZW, priority 2011, dated 2015)
